# Molecular target: T1, b-Raf (Homo sapiens, UniProt P15056, V600E)
# T1 construct: endogenous in cells; host or cells: A2058 human melanoma cells
# Test: Raf cellular assay (phospho-Mek1/2 ELISA in A2058 cells)
# Format: cell-based
# Conditions: Table 3; human melanoma A2058 cells (b-Raf mutation), Mek1/2 Ser217/221 phosphorylation, 1 hour incubation; read-out: pMEK IC50
# Protocol: Compounds of the present invention were evaluated for potency against b-Raf using a cellular assay as follows. The activity of Raf kinases in cells is determined by measuring the level of phosphorylation of Mek1/2 at serine 217/221, the site phosphorylated by Raf kinases in vivo. Mek1/2 Ser phosphorylation is measured using anti-phospho-Mek1/2 antibodies (Cell Signaling #9121) in an ELISA format.
# Healthy growing human melanoma A2058 cells (harboring a b-Raf mutation) are used for the assay. A2058 cells are grown in 10% FBS DMEM medium. When the cells are near 85%+confluence, the cells are rinsed with PBS once and trypsinized with trypsin/EDTA for 3 minutes. The cells are resuspended in 10% FBS DMEM and are centrifuged down at 1000 rpm for 5 minutes. The cells are resuspended in 10% FBS DMEM and counted on a cell counter. The cells are seeded at 50,000 cells/well in a volume of 100 μL/well in 10% FBS DMEM in a 96 well flat-bottom plate. The negative control wells receive only 100 μL of 10% FBS DMEM medium without cells. The plate is incubated overnight in a cell culture incubator with 5% CO2 at 37° C.
# On day 2, testing compounds are prepared in 10% FBS DMEM medium and serially diluted at 1:3 for 11 test concentrations. Each concentration of the compounds is tested in duplicate. The compound solutions are added at 25 μL/well to the corresponding wells in the cell plate, and 25 μL/well of the vehicle (0.5% DMSO in 10% FBS DMEM) is added to the negative control wells (no cells) and the positive control wells (cells without compounds). The plate is incubated for 1 hour in a cell culture incubator with 5% CO2 at 37° C. After 1 hour of incubation, the medium is removed, 100 μL/well of cell lysis buffer is added into the cell plate, and the plate is shaken for 15 minutes at room temperature. After 15 minutes, the cell lysates are transferred to an ELISA plate (pre-coated with anti-Mek1 anti-body, Cell Signaling #2352), and the plate is incubated with gentle shaking for 2 hours at room temperature. After 2 hours, the contents of the wells are aspirated and the wells are washed 4 times with wash buffer. 100 μL of phospho-Mek1/2 detection antibody (Cell Signaling #9121) is added into each well and the plate is incubated with gentle shaking for 1 hour at room temperature. After 1 hour, the wells are aspirated and washed 4 times with wash buffer. 100 μL of anti-rabbit IgG HRP-linked antibody (Cell Signaling #7074) is added to each well, and the plate is incubated with gentle shaking for 1 hour at room temperature. After 1 hour, the contents of the wells are aspirated and the wells are washed 4 times with wash buffer. 100 μL of TMB substrate solution (Sigma #T0440) is added into each well, and the plate is incubated with gentle shaking at room temperature for 10 to 20 minutes. After color development, 100 μL of stop solution (1N hydrochloric acid) is added to each well to terminate color development. The plate is read at 450 nm on an ELISA plate reader.
# T1 sequence (P15056 whole entry V600E): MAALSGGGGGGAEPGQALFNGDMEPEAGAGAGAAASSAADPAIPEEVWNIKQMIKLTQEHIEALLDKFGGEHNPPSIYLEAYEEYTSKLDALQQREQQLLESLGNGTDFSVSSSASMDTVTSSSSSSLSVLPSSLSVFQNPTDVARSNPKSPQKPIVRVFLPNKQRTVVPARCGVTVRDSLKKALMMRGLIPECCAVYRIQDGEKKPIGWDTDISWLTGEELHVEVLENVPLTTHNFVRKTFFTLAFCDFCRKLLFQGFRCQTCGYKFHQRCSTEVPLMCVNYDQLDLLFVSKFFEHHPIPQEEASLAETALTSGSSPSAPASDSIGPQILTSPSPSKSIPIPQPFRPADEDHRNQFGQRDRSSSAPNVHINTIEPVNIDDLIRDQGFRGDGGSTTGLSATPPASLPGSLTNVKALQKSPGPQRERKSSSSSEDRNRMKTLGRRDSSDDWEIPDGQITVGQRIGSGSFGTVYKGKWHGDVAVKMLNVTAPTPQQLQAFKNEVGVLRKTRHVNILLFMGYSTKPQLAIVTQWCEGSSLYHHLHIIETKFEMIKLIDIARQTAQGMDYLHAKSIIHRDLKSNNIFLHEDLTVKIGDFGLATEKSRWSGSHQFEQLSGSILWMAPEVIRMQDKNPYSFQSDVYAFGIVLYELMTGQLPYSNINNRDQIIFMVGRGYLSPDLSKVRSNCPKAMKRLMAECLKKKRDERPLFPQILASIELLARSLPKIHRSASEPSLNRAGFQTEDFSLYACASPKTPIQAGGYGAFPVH
row,SMILES,IC50
1,"COc1cncc(-c2nn([C@@H]3CCOC3)cc2-c2ccnc(NCCC#N)n2)c1 [Example B-73, 3-[(4-{3-(5-methoxypyridin-3-yl)-1-[(3R)-tetrahydrofuran-3-yl]-1H-pyrazol-4-yl}pyrimidin-2-yl)amino]propanenitrile]",63.5 nM
2,"CC(C)n1cc(-c2ccnc(NCCC#N)n2)c(-c2cnc3c(c2)CCN3)n1 [Example B-20, 3-({4-[3-(2,3-dihydro-1H-pyrrolo[2,3-b]pyridin-5-yl)-1-isopropyl-1H-pyrazol-4-yl]pyrimidin-2-yl}amino)propanenitrile]",6.64 nM
3,"Cc1n[nH]c2ncc(-c3nn(CC(F)F)cc3-c3ccnc(NC4CCOC4)n3)cc12 (centres unmarked) [Example G-4, 4-[1-(2,2-difluoroethyl)-3-(3-methyl-1H-pyrazolo[3,4-b]pyridin-5-yl)-1H-pyrazol-4-yl]-N-(tetrahydrofuran-3-yl)pyrimidin-2-amine]",774 nM
4,"N#CCCNc1nccc(-c2cn(CC(F)F)nc2-c2cnc3[nH]cc(F)c3c2)n1 [Example B-21, 3-({4-[1-(2,2-difluoroethyl)-3-(3-fluoro-1H-pyrrolo[2,3-b]pyridin-5-yl)-1H-pyrazol-4-yl]pyrimidin-2-yl}amino)propanenitrile]",1.95 nM
5,"Cc1c[nH]c2ncc(-c3nn(C(C)(C)CO)cc3-c3ccnc(NCCC#N)n3)cc12 [Example B-23, 3-({4-[1-(2-hydroxy-1,1-dimethylethyl)-3-(3-methyl-1H-pyrrolo[2,3-b]pyridin-5-yl)-1H-pyrazol-4-yl]pyrimidin-2-yl}amino)propanenitrile]",0.428 nM
6,"CC(C)n1cc(-c2ccnc3[nH]ccc23)c(-c2cnc3[nH]cc(Cl)c3c2)n1 [Example H-4, 3-chloro-5-(1-isopropyl-4-(1H-pyrrolo[2,3-b]pyridin-4-yl)-1H-pyrazol-3-yl)-1H-pyrrolo[2,3-b]pyridine]",66.3 nM
7,"Clc1c[nH]c2ncc(-c3nn(C4CCNCC4)cc3-c3ccncn3)cc12 [Example B-64, 3-chloro-5-(1-piperidin-4-yl-4-pyrimidin-4-yl-1H-pyrazol-3-yl)-1H-pyrrolo[2,3-b]pyridine]",61.7 nM
8,"FC(F)CNc1nccc(-c2cn(CC(F)F)nc2-c2cnc3c(c2)CCN3)n1 [Example B-90, N-(2,2-difluoroethyl)-4-(1-(2,2-difluoroethyl)-3-(2,3-dihydro-1H-pyrrolo[2,3-b]pyridin-5-yl)-1H-pyrazol-4-yl)pyrimidin-2-amine]",43.4 nM
9,"CC(C)n1cc(-c2ccnc(NCCC#N)n2)c(-c2cnc3[nH]ccc3c2)n1 [Example B-50, 3-({4-[1-isopropyl-3-(1H-pyrrolo[2,3-b]pyridin-5-yl)-1H-pyrazol-4-yl]pyrimidin-2-yl}amino)-propanenitrile]",7.29 nM
10,"Cc1c[nH]c2ncc(-c3nn(CC(F)F)cc3-c3ccnc(NCCC#N)n3)cc12 [Example B-93, 3-(4-(1-(2,2-difluoroethyl)-3-(3-methyl-1H-pyrrolo[2,3-b]pyridin-5-yl)-1H-pyrazol-4-yl)pyrimidin-2-ylamino)propanenitrile]",0.275 nM
11,"CC(C)n1cc(-c2ccnc(NC[C@H](C)O)n2)c(-c2cnc3[nH]cc(Cl)c3n2)n1 [Example I-2, (2S)-1-({4-[3-(7-chloro-5H-pyrrolo[2,3-b]pyrazin-2-yl)-1-isopropyl-1H-pyrazol-4-yl]pyrimidin-2-yl}amino)propan-2-ol]",20 nM
12,"COc1cc(-c2nn(C(C)C)cc2-c2ccnc(NC3CC3)n2)cnc1N [Example B-16, 4-[3-(6-amino-5-methoxypyridin-3-yl)-1-isopropyl-1H-pyrazol-4-yl]-N-cyclopropylpyrimidin-2-amine]",24 nM
13,"COc1nc(-c2nn(CC(F)F)cc2-c2ccnc(NCCC#N)n2)cnc1N [Example B-32, 3-({4-[3-(5-amino-6-methoxypyrazin-2-yl)-1-(2,2-difluoroethyl)-1H-pyrazol-4-yl]pyrimidin-2-yl}amino)propanenitrile]",1 nM

# The remaining lines, values ahead:
row,IC50,SMILES
1,49.9 nM,"CC(C)n1cc(-c2ccncn2)c(-c2cnc3[nH]cc(Cl)c3c2)n1 [Example F-1, 3-chloro-5-(1-isopropyl-4-(pyrimidin-4-yl)-1H-pyrazol-3-yl)-1H-pyrrolo[2,3-b]pyridine]"
2,107 nM,N#CCCNc1nccc(-c2cn(CC(F)F)nc2-c2cnc3c(ccn3CCC#N)c2)n1 [Example D-15]
3,87.8 nM,"CC(C)n1cc(-c2ccnc(NC[C@H](C)O)n2)c(-c2cnc(N)c(OC(F)F)c2)n1 [Example B-39, (2S)-1-[(4-{3-[6-amino-5-(difluoromethoxy)-pyridin-3-yl]-1-isopropyl-1H-pyrazol-4-yl}pyrimidin-2-yl)amino]propan-2-ol]"
4,0.627 nM,"COc1cc(-c2nn(CC(F)F)cc2-c2ccnc(NCCC#N)n2)cnc1N [Example B-82, 3-(4-(3-(6-amino-5-methoxypyridin-3-yl)-1-(2,2-difluoroethyl)-1H-pyrazol-4-yl)pyrimidin-2-ylamino)propanenitrile]"
5,14.1 nM,"C[C@H](O)CNc1nccc(-c2cn(CC(F)F)nc2-c2cnc3[nH]cc(Cl)c3c2)n1 [Example B-96, (2S)-1-({4-[3-(3-chloro-1H-pyrrolo[2,3-b]pyridin-5-yl)-1-(2,2-difluoroethyl)-1H-pyrazol-4-yl]pyrimidin-2-yl}amino)propan-2-ol]"
6,8.8 nM,"CC(=O)c1cc(-c2nn(CC(F)F)cc2-c2ccnc(NCCC#N)n2)cnc1N [Example B-78, 3-(4-(3-(5-acetyl-6-aminopyridin-3-yl)-1-(2,2-difluoroethyl)-1H-pyrazol-4-yl)pyrimidin-2-ylamino)propanenitrile]"
7,6.93 nM,"N#CCCNc1nccc(-c2cn(CC(F)F)nc2-c2cnc3c(c2)CCN3)n1 [Example B-88, 3-(4-(1-(2,2-difluoroethyl)-3-(2,3-dihydro-1H-pyrrolo[2,3-b]pyridin-5-yl)-1H-pyrazol-4-yl)pyrimidin-2-ylamino)propanenitrile]"
8,1.37 nM,"Cc1c[nH]c2ncc(-c3nn(C(F)F)cc3-c3ccnc(NCCC#N)n3)cc12 [Example B-44, 3-({4-[1-(difluoromethyl)-3-(3-methyl-1H-pyrrolo[2,3-b]pyridin-5-yl)-1H-pyrazol-4-yl]pyrimidin-2-yl}amino)-propanenitrile]"
9,107 nM,"C[C@H](O)CNc1nccc(-c2cn(CC(F)F)nc2-c2cnc3[nH]cc(F)c3c2)n1 [Example B-101, (2S)-1-({4-[1-(2,2-difluoroethyl)-3-(3-fluoro-1H-pyrrolo[2,3-b]pyridin-5-yl)-1H-pyrazol-4-yl]pyrimidin-2-yl}amino)propan-2-ol]"
10,9.3 nM,"CC(=O)c1cc(-c2nn(C(C)C)cc2-c2ccnc(NCCC#N)n2)cnc1N [Example B-52, 3-({4-[3-(5-acetyl-6-aminopyridin-3-yl)-1-isopropyl-1H-pyrazol-4-yl]pyrimidin-2-yl}amino)propanenitrile]"
11,8.06 nM,"Nc1nccc(-c2cn(CC(F)F)nc2-c2cnc3[nH]cc(Cl)c3c2)n1 [Example B-107, 4-[3-(3-chloro-1H-pyrrolo[2,3-b]pyridin-5-yl)-1-(2,2-difluoroethyl)-1H-pyrazol-4-yl]pyrimidin-2-amine]"
12,18.7 nM,Cn1ccc2ncc(-c3nn(CC(F)F)cc3-c3ccnc(NCCC#N)n3)cc21 [Example B-38]
13,509 nM,"C[C@H](O)CNc1nccc(-c2cn(CC(F)F)nc2-c2cnc3c(c2)CCN3)n1 [Example B-102, (2S)-1-({4-[1-(2,2-difluoroethyl)-3-(2,3-dihydro-1H-pyrrolo[2,3-b]pyridin-5-yl)-1H-pyrazol-4-yl]pyrimidin-2-yl}amino)propan-2-ol]"
